Test results taken from ChEMBL document CHEMBL1201862, “PubChem BioAssay data set” (2004).
The source made the active and inactive calls.

How the values were obtained:
H9c2 = test: cells; type: functional, cell-based; settings: Rattus norvegicus, H9c2, Myocardium;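 note: confirmatory concentration-response retest of ultra-high-throughput screening hits for modulation of myocardial damage; cell death induced by hydrogen peroxide oxidative stress; compound pretreatment for 60 min then peroxide exposure for 2 h; potency is for protecting the cells against peroxide damage rather than for killing them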
Protein skinhead-1 = target: T1, Protein skinhead-1 (Caenorhabditis elegans, UniProt P34707); type: functional
T1 sequence (P34707 whole entry): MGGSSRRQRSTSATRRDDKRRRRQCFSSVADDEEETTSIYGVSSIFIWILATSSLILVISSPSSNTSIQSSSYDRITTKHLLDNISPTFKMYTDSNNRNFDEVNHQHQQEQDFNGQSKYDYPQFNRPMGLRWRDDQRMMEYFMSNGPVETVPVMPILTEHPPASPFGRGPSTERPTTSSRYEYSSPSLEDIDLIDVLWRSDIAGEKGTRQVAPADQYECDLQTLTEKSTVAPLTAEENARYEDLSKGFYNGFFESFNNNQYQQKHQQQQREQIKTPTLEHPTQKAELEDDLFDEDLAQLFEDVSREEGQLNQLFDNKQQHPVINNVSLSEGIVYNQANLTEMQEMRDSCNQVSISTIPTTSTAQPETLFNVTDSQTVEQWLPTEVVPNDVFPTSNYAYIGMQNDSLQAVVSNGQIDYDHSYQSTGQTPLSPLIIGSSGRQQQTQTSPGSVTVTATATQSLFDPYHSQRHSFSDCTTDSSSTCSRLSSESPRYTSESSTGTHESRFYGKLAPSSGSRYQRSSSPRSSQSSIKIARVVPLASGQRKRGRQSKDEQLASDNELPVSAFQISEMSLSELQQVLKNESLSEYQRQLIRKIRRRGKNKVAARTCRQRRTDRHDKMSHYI

[1] = target: T2, Corticotropin-releasing factor receptor 2/Corticotropin-releasing factor-binding protein (Homo sapiens, UniProt P24387+Q13324); test: Dose Response confirmation of uHTS hits for small molecule antagonists of the CRF-binding protein and CRF-R2 receptor complex.; type: functional; settings: read-out: IC50_Mean
T2 sequence (Q13324 whole entry): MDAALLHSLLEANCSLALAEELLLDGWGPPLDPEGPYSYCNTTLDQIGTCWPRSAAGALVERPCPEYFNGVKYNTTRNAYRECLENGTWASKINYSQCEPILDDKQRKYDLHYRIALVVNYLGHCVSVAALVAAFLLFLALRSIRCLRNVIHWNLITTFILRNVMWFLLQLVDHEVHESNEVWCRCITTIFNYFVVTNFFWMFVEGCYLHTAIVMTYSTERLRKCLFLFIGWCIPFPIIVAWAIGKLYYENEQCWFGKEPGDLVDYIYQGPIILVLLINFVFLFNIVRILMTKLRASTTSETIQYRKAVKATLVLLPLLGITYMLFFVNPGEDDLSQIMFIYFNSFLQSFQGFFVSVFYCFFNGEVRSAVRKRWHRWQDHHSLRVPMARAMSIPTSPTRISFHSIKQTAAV
T2 sequence (P24387 whole entry): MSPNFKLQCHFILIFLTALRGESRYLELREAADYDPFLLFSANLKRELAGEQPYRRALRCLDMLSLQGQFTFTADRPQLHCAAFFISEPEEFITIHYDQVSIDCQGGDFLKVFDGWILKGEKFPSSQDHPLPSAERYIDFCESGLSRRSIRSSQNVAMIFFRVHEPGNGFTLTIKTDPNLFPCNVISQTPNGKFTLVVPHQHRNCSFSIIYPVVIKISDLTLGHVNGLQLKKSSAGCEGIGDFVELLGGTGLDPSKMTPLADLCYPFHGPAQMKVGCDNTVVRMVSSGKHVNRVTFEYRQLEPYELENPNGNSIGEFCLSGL

[2] = target: T2, Corticotropin-releasing factor receptor 2/Corticotropin-releasing factor-binding protein; test: activators of CRF receptor 2 with binding protein – uHTS hits, confirmation (AID 602473); type: functional; settings: read-out: EC50_Mean
Large T antigen = Large T antigen (Simian virus 40, UniProt P03070); type: functional, Betapolyomavirus macacae;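 note: Confirmatory-stage PubChem screen for compounds that inhibit SV40 T antigen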
[3] = target: T3, Replicative DNA helicase DnaB (Mycobacterium tuberculosis, UniProt P9WMR3); test: DnaB intein splicing inhibitors, dose response, biochemical, cell-free fluorescence (AID 449749); type: functional
T3 sequence (P9WMR3 whole entry): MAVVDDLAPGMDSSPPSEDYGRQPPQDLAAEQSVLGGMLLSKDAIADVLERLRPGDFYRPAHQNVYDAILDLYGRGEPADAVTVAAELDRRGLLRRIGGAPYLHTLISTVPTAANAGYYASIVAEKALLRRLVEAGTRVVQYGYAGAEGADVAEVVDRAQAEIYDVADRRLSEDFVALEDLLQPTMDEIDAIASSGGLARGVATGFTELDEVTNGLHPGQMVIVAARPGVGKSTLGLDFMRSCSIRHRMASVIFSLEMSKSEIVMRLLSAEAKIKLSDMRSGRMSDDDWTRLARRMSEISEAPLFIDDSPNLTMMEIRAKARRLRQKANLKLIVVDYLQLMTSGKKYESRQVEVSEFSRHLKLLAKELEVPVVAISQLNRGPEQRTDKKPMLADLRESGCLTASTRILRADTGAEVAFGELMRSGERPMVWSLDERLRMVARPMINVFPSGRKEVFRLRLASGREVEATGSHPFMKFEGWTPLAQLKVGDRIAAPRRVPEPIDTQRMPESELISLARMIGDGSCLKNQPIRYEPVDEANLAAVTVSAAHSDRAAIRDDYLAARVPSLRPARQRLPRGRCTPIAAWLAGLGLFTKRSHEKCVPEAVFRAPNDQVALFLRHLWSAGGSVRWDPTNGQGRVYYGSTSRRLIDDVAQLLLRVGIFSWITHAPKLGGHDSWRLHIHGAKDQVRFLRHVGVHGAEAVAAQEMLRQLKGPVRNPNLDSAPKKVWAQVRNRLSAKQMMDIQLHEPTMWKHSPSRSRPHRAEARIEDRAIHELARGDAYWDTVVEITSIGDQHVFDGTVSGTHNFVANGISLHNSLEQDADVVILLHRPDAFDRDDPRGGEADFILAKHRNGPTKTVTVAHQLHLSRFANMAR

Protein RecA = target: T4, Protein RecA (Mycobacterium tuberculosis, UniProt P9WHJ3); test: Fluorescence Cell-Free Homogeneous Dose Retest to Identify Inhibitors of RecA-Intein Splicing Activity. [Related pubchem assays (depositor defined):AID2097, AID2223, AID489010, AID492950]; type: functional
T4 sequence (P9WHJ3 whole entry): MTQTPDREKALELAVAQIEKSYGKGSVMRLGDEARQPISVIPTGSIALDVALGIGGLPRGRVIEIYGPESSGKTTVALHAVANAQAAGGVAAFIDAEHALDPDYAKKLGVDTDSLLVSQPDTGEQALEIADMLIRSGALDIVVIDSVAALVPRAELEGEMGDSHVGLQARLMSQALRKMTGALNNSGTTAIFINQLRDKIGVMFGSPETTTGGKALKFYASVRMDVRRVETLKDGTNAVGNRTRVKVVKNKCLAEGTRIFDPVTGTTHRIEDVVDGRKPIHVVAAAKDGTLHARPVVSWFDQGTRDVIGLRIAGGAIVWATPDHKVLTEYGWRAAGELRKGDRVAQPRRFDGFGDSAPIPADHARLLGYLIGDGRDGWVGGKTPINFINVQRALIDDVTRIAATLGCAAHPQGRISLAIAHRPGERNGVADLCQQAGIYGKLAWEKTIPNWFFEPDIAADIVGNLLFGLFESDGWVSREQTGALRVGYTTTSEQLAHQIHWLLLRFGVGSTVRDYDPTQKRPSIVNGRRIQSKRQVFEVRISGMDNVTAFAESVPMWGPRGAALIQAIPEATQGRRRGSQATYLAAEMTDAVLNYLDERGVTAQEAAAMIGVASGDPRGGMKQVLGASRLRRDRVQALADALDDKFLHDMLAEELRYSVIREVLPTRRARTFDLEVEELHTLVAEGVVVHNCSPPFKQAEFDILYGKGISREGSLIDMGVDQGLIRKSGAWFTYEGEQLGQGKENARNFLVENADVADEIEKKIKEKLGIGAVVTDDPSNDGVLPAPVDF

[4] = NIH3T3 cell viability loss – ATP luminescence, mouse fibroblasts, counter-screen, dose response (AID 2010); type: functional, cell-based;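 note: cells exposed to compound for about 90 hours before reading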
[5] = Trypanosoma cruzi growth suppression in host cells – NIH3T3 host cells, beta-gal luminescence, confirmation (AID 2044); type: functional, cell-based;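 note: intracellular parasites grown in NIH/3T3 mouse fibroblasts as host cells; luminescent beta-galactosidase reporter signal from transgenic T. cruzi replicating inside host cells; inhibitors lower the luminescence signal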
[6] = target: T5, Rac GTPase-activating protein 1 (Homo sapiens, UniProt Q9H0H5); test: blockers of MgcRacGAP-driven Rac1 GTP hydrolysis – biochemical, ADP Hunter fluorescence, primary and confirmatory, confirmation (AID 624330); type: functional
T5 sequence (Q9H0H5 whole entry): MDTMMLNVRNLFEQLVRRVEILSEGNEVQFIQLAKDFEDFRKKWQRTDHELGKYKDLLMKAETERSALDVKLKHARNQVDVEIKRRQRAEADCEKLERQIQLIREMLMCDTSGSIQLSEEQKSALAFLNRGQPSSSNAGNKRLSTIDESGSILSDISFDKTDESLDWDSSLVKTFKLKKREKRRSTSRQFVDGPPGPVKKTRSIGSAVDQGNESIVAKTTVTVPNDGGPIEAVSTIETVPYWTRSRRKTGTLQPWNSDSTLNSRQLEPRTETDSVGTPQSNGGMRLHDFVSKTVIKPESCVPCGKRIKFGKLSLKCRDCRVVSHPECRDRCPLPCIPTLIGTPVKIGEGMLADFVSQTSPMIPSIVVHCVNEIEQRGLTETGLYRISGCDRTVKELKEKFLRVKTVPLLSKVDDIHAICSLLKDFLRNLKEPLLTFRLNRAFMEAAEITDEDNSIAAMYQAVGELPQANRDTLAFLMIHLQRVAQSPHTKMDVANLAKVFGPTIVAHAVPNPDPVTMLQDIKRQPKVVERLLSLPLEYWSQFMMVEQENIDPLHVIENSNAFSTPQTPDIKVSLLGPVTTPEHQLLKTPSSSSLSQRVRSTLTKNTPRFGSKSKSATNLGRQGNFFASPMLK

Large T antigen, sequence (P03070 whole entry): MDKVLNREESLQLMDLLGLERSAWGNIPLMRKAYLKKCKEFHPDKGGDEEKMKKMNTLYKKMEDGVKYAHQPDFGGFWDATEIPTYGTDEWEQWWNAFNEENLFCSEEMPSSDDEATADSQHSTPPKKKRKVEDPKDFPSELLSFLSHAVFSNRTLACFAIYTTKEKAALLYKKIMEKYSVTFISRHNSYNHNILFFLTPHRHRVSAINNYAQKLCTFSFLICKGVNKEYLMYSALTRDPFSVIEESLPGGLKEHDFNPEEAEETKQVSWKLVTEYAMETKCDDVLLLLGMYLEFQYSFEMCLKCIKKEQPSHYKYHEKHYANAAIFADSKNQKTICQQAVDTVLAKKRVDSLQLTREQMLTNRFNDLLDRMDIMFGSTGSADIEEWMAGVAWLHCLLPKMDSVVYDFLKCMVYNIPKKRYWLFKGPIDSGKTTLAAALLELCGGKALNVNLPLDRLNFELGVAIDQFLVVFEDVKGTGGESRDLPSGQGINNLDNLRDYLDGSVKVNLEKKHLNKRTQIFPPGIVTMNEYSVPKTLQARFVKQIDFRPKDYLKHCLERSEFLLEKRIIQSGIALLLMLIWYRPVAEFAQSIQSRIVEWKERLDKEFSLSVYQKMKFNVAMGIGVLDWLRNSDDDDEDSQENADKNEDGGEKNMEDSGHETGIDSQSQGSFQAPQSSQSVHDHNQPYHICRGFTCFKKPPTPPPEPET

Row | SMILES | IC50 [1] | EC50 [2] | further results
1 | CCN1C(=O)/C(=C/c2nc3ccccc3c(=O)n2-c2ccccc2)c2ccccc21 | – | – | IC50 (H9c2): > 79 µM (inactive)
2 | CCCCC(=O)NCc1ccc2c(c1)cc(C)n2C | – | – | IC50 (Protein skinhead-1): > 100 µM (inactive)
3 | CN(C(=O)COC(=O)CCc1nc2ccccc2c(=O)[nH]1)C1CCS(=O)(=O)C1 (stereo not drawn) | 40.1 µM (active) | > 53 µM (inactive) | –
4 | O=C(Nc1ccccc1)Nc1csc2ccccc12 | – | – | IC50 (Protein skinhead-1): > 100 µM (inactive)
5 | Cc1cc(F)ccc1S(=O)(=O)N(C(=O)c1ccncc1)c1ccc(OC(=O)c2ccncc2)cc1 | – | – | IC50 (Large T antigen): 50.7 µM (active); AC50 [3]: 4.53 µM (active); EC50 (Protein RecA): 14.1 µM (active)
6 | CCOC(=O)Cc1nnc(O)c2ccccc12 | – | – | IC50 (H9c2): 11.1 µM (active)
7 | NC(=NOCC(=O)Nc1ccccc1)c1nonc1N | > 47.1 µM (inactive) | > 53 µM (inactive) | –
8 | Nc1nn(S(=O)(=O)c2ccccc2)cc1-c1ccc([N+](=O)[O-])cc1 | > 47.1 µM (inactive) | > 53 µM (inactive) | –
9 | CCOc1cccc(Nc2cc3n(c(=O)n2)CCc2cc(OC)c(OC)cc2-3)c1 | – | – | IC50 (H9c2): 12.8 µM (active)
10 | O=C(Cn1nc(Cl)nc1Cl)Nc1ccccc1 | > 47.1 µM (inactive) | > 53 µM (inactive) | –
11 | CS(=O)(=O)N1CCN(C(=O)COc2ccc3ccccc3c2)CC1 | > 47.1 µM (inactive) | > 53 µM (inactive) | –
12 | CCOc1ccc2nc(O)c(CN(CCO)C3(c4nnnn4C4CCCCC4)CCCCC3)cc2c1 | – | – | IC50 (H9c2): 26.4 µM (active)
13 | COc1ccc2nc(O)c(CN(Cc3ccco3)C(c3nnnn3Cc3ccccc3)C(C)C)cc2c1 (stereo not drawn) | – | – | EC50 [4]: > 60 µM (not active); IC50 (H9c2): > 79 µM (inactive); EC50 [5]: > 60 µM (not active)
14 | O=S(=O)(c1ccc(F)cc1)n1ccc(-c2cccc(OCc3c(F)cccc3Cl)c2)n1 | – | – | IC50 (Protein skinhead-1): > 100 µM (inactive)
15 | O=C1/C(=C/c2cccs2)SC(=S)N1CC(=O)N1CCCCC1CCO (stereo not drawn) | – | – | IC50 (Protein skinhead-1): > 100 µM (inactive)
16 | CCc1c(C)nc(SCC(=O)N2CCN(c3ccccc3OC)CC2)nc1O | > 47.1 µM (inactive) | > 53 µM (inactive) | –
17 | O=C1CCSc2c1ccc1ccccc21 | > 47.1 µM (inactive) | > 53 µM (inactive) | –
18 | COc1cc(NC(=O)[C@H](C)NC(=O)N2CCn3c2nc2ccccc23)cc(OC)c1 | > 47.1 µM (inactive) | > 53 µM (inactive) | –
19 | CC(NC(=O)Cn1nc(C(=O)O)c2ccccc2c1=O)c1ccccc1 (stereo not drawn) | – | – | IC50 (H9c2): 18.3 µM (active)
20 | Cc1cccc(NC(=O)Cc2ccc(NC3=NC4CS(=O)(=O)CC4S3)cc2)c1 (stereo not drawn) | > 47.1 µM (inactive) | > 53 µM (inactive) | –
21 | CCN(C(=O)CCc1nnc2ccc(N3CCC4(CC3)OCCO4)nn12)c1ccccc1 | > 47.1 µM (inactive) | > 53 µM (inactive) | –
22 | COc1ccc(-c2cc(C(=O)NC3CCCC3)c3ccccc3n2)cc1OC | > 47.1 µM (inactive) | > 53 µM (inactive) | –
23 | CCC(=O)c1ccc(OCC(=O)NCCCN2CCOCC2)cc1 | > 47.1 µM (inactive) | > 53 µM (inactive) | –
24 | C/C(=N\CCCn1ccnc1)c1c(-c2ccccc2)[nH]n(-c2nc3ccccc3s2)c1=O | – | – | IC50 (H9c2): > 79 µM (inactive)
25 | COc1cc(/C=N\NC(=O)c2c(C)nc3cc(C)ccn23)ccc1O | – | – | IC50 [6]: 33.3 µM (active); IC50 (Large T antigen): 13.4 µM (active)
26 | C/C(CC(=O)Nc1ccc(N(C)C)cc1)=N\NC(=O)c1ccc([N+](=O)[O-])cc1Cl | – | – | IC50 [6]: 66.7 µM (active); IC50 (Large T antigen): 9.88 µM (active)
27 | CCOc1cc(/C=N\NC(=O)CC(=O)NCCc2ccccc2)ccc1O | – | – | IC50 [6]: 46.5 µM (active); IC50 (Large T antigen): 7.94 µM (active)
28 | C/C(=N/NC(=O)CSc1nc2ccccc2n1C)c1ccc(O)cc1 | – | – | IC50 [6]: 138 µM (active); IC50 (Large T antigen): 30.9 µM (active)
